Experimental data taken from PubChem BioAssay (NCI).
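96-well plates; 48 h exposure; 5 concentrations. Endpoints by linear interpolation between flanking doses. Not reached: highest tested concentration assigned. Definition used: TGI = concentration required for complete inhibition of growth.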

Tests used:
Assay in all cases: NCI tumour cell line growth inhibition, 48 h
KM12 colon = system: KM12 colon
CAKI-1 renal = system: CAKI-1 renal
OVCAR-3 ovarian = system: OVCAR-3 ovarian
SN12C renal = system: SN12C renal
M14 melanoma = system: M14 melanoma
HOP-92 NSCLC = system: HOP-92 NSCLC
RXF 393 renal = system: RXF 393 renal
NCI-H226 lung = system: NCI-H226 lung
SK-MEL-28 melanoma = system: SK-MEL-28 melanoma
U251 CNS = system: U251 CNS
EKVX NSCLC = system: EKVX NSCLC
SF-268 CNS = system: SF-268 CNS
HCC-2998 colon = system: HCC-2998 colon
MOLT-4 leukemia = system: MOLT-4 leukemia
MALME-3M melanoma = system: MALME-3M melanoma
RPMI-8226 leukemia = system: RPMI-8226 leukemia
HCT-15 colon = system: HCT-15 colon
SR leukemia = system: SR leukemia
COLO 205 colon = system: COLO 205 colon
DMS 273 small cell lung = system: DMS 273 small cell lung
DMS 114 small cell lung = system: DMS 114 small cell lung
RXF-631 renal = system: RXF-631 renal
M19-MEL melanoma = system: M19-MEL melanoma
NCI-H460 lung = system: NCI-H460 lung
A498 renal = system: A498 renal
OVCAR-8 ovarian = system: OVCAR-8 ovarian
SW-620 colon = system: SW-620 colon
ACHN renal = system: ACHN renal
UACC-62 melanoma = system: UACC-62 melanoma
IGROV1 ovarian = system: IGROV1 ovarian
CCRF-CEM leukemia = system: CCRF-CEM leukemia
LOX IMVI melanoma = system: LOX IMVI melanoma
UACC-257 melanoma = system: UACC-257 melanoma
OVCAR-4 ovarian = system: OVCAR-4 ovarian
HOP-62 NSCLC = system: HOP-62 NSCLC
K-562 leukemia = system: K-562 leukemia
NCI-H23 lung = system: NCI-H23 lung
TK-10 renal = system: TK-10 renal
HCT-116 colon = system: HCT-116 colon
UO-31 renal = system: UO-31 renal
SK-OV-3 ovarian = system: SK-OV-3 ovarian
SK-MEL-2 melanoma = system: SK-MEL-2 melanoma
786-0 renal = system: 786-0 renal
SF-539 CNS = system: SF-539 CNS
NCI-H522 lung = system: NCI-H522 lung
SF-295 CNS = system: SF-295 CNS
HL-60(TB) leukemia = system: HL-60(TB) leukemia
KM20L2 colon = system: KM20L2 colon
A549 NSCLC = system: A549 NSCLC
SNB-19 CNS = system: SNB-19 CNS
OVCAR-5 ovarian = system: OVCAR-5 ovarian
HT29 colon = system: HT29 colon
SNB-78 CNS = system: SNB-78 CNS
DLD-1 colon = system: DLD-1 colon
SNB-75 CNS = system: SNB-75 CNS
HOP-18 NSCLC = system: HOP-18 NSCLC
LXFL 529 NSCLC = system: LXFL 529 NSCLC

Measured: TGI

N#Cc1ccc(C=NC23CC4CC(CC(C4)C2)C3)cc1
53 µM: HL-60(TB) leukemia
not listed: DLD-1 colon | SNB-75 CNS | HOP-18 NSCLC | LXFL 529 NSCLC
> 100 µM: all other assays above

[O-]c1c2cc(-[n+]3c(-c4ccccc4)cc(-c4ccccc4)cc3-c3ccccc3)cc1COCCOCCOCCOCCOC2
44 µM: SK-MEL-2 melanoma
65.7 µM: SR leukemia
93.5 µM: SF-268 CNS
73.9 µM: HOP-92 NSCLC
98.3 µM: MALME-3M melanoma
82.5 µM: UACC-257 melanoma
33.5 µM: COLO 205 colon
55 µM: LXFL 529 NSCLC
46.7 µM: SK-MEL-28 melanoma
87.3 µM: M19-MEL melanoma
50 µM: KM12 colon
44.2 µM: UACC-62 melanoma
not listed: OVCAR-3 ovarian | RXF 393 renal | RPMI-8226 leukemia | DMS 114 small cell lung | RXF-631 renal | NCI-H460 lung | A498 renal | IGROV1 ovarian | SNB-78 CNS
> 100 µM: all other assays above
